Test results reported in ChEMBL document CHEMBL3792292, “Development of a potent and selective FLT3 kinase inhibitor by systematic expansion of a non-selective fragment-screening hit” (Bioorg Med Chem Lett, 2016).

Experiments:
[1] = molecular target: T1, Serine/threonine-protein kinase D2 (Homo sapiens) (UniProt Q9BZL6); assay: Inhibition of full length human N-terminal GST-tagged PKD2 (1 to 878 residues) expressed in baculovirus expression system using fluorescence labelled GS peptide substrate at 50 times IC50 by electrophoretic mobility shift assay relative to control
T1 sequence (whole entry): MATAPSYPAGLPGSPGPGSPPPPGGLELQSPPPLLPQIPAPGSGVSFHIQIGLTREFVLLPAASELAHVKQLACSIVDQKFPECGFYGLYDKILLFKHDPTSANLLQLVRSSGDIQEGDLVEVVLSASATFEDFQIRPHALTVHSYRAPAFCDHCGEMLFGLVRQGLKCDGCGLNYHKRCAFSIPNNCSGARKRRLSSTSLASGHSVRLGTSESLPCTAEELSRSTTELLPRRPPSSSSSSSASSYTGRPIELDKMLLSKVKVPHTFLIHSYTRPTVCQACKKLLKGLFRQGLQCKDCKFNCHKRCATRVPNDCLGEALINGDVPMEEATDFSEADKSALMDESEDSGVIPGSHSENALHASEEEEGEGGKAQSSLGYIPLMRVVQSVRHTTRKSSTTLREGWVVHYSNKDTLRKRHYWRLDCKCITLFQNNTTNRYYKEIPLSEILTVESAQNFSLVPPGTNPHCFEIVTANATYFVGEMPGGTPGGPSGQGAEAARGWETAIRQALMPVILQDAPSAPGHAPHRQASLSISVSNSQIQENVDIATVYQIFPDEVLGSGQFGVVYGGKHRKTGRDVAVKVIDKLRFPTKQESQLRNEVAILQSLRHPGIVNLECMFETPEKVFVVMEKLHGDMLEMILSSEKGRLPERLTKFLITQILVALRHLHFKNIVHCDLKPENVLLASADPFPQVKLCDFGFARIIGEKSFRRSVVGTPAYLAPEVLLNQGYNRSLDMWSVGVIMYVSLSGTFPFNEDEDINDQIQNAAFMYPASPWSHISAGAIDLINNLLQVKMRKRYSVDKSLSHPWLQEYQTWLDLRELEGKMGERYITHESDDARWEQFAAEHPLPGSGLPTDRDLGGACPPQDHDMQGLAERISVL

[2] = molecular target: T2, Tyrosine-protein kinase receptor TYRO3 (Homo sapiens) (UniProt Q06418); assay: Inhibition of human N-terminal GST-tagged TYRO3 cytoplasmic domain (453 to 890 residues) expressed in baculovirus expression system using fluorescence labelled CSKtide as substrate at 50 times IC50 by electrophoretic mobility shift assay relative to control
T2 sequence (whole entry): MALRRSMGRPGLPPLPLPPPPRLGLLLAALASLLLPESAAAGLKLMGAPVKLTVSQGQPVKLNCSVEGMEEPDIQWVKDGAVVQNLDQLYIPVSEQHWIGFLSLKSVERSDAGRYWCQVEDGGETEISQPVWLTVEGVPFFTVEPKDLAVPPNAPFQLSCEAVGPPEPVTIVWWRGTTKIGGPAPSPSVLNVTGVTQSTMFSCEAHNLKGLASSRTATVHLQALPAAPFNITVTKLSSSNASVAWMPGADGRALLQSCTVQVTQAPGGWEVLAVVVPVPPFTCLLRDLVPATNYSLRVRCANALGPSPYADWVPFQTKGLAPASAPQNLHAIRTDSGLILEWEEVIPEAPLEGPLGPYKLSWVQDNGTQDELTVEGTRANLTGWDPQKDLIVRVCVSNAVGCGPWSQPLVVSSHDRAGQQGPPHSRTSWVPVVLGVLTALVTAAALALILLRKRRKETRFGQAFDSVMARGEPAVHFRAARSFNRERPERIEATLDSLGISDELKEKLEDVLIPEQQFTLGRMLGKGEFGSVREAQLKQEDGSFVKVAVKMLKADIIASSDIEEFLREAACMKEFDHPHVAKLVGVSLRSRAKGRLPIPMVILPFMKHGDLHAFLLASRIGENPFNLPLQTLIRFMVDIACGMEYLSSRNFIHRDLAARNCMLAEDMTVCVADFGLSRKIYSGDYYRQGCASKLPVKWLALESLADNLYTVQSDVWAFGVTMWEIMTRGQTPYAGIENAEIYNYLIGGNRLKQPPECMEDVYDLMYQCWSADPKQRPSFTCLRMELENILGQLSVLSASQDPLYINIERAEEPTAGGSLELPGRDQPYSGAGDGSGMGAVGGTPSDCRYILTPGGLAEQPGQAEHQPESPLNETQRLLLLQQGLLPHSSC

[3] = molecular target: Receptor-type tyrosine-protein kinase FLT3 (Homo sapiens) (UniProt P36888); assay: Inhibition of human N-terminal GST-tagged FLT3 cytoplasmic domain (564 to 993 residues) expressed in baculovirus expression system using fluorescence labelled srctide as substrate at 50 times IC50 by electrophoretic mobility shift assay relative to control
Receptor-type tyrosine-protein kinase FLT3 (Homo sapiens), sequence (P36888 whole entry, the tested form may be a part): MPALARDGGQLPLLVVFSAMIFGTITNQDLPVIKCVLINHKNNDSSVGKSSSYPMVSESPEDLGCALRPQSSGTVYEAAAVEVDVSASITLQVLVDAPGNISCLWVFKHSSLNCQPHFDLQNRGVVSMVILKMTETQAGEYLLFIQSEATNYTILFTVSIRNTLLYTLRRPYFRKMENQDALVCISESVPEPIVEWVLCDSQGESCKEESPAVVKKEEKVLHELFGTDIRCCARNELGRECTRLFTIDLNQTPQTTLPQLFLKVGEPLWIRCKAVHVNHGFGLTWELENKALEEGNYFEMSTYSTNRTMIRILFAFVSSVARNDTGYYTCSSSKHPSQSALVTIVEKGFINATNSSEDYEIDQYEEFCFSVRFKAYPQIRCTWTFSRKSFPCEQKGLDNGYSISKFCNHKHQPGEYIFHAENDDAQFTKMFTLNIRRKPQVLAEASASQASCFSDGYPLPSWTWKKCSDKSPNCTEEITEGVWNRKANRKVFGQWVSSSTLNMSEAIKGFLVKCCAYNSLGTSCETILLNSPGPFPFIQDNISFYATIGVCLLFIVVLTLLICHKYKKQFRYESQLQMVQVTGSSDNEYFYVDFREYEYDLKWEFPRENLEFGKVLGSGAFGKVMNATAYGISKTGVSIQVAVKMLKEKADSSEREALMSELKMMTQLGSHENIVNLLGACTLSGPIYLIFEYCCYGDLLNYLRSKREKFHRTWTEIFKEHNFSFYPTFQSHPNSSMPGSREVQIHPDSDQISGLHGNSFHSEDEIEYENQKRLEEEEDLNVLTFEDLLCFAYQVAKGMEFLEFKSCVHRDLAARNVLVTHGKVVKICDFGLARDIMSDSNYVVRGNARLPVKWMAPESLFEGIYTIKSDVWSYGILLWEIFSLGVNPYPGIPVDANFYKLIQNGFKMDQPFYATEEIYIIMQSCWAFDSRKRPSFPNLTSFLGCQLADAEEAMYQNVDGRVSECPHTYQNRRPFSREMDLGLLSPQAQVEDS

[4] = molecular target: High affinity nerve growth factor receptor (Homo sapiens, UniProt P04629); assay: Inhibition of human N-terminal GST-tagged TRKA cytoplasmic domain (436 to 790 residues) expressed in baculovirus expression system using fluorescence labelled CSKtide as substrate at 50 times IC50 by electrophoretic mobility shift assay relative to control
High affinity nerve growth factor receptor, sequence (P04629 33-796 limits assumed): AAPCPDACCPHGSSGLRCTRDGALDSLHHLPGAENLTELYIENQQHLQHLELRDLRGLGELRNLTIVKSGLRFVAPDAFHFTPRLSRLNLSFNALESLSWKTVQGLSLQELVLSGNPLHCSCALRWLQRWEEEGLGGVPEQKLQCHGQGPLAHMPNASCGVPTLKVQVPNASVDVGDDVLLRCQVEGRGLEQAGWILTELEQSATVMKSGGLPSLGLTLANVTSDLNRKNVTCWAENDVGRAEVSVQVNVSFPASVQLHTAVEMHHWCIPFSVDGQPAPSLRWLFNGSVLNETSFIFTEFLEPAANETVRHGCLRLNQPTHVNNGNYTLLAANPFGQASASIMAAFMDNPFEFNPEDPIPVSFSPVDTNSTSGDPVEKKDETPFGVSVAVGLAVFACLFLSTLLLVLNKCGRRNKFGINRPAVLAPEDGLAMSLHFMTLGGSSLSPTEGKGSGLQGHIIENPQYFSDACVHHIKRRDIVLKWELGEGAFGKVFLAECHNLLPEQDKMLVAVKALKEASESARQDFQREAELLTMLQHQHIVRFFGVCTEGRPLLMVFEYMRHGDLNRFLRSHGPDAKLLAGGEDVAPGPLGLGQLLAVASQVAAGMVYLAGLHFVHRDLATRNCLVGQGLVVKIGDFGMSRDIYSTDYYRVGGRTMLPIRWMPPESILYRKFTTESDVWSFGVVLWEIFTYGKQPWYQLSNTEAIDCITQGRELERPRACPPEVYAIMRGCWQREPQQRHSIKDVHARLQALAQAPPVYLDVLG

[5] = molecular target: Insulin-like growth factor 1 receptor (Homo sapiens) (UniProt P08069); assay: Inhibition of human N-terminal GST-tagged IGF1R cytoplasmic domain (959 to 1367 residues) expressed in baculovirus expression system using fluorescence labelled IRS1 as substrate at 50 times IC50 by electrophoretic mobility shift assay relative to control
Insulin-like growth factor 1 receptor (Homo sapiens), sequence (P08069 31-736 limits assumed): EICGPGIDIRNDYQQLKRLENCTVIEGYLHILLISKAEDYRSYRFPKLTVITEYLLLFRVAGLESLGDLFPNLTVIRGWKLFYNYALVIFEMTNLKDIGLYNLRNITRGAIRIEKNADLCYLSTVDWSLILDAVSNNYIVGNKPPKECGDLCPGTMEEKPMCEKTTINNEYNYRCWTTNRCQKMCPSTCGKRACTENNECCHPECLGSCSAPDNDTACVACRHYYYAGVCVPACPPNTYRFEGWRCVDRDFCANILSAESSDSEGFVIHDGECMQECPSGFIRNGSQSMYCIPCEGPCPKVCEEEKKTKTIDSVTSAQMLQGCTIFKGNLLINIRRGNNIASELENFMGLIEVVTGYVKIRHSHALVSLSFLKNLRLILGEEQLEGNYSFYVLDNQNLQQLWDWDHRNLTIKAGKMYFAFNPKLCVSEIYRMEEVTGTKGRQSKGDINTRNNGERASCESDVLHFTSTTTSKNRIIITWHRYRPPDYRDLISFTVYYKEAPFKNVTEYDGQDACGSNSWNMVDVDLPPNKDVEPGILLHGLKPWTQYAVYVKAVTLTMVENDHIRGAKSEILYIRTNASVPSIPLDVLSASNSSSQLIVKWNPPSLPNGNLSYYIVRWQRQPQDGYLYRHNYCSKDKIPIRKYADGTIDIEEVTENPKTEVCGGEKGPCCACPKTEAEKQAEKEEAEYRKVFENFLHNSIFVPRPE
Insulin-like growth factor 1 receptor (Homo sapiens), sequence (P08069 741-1367 limits assumed): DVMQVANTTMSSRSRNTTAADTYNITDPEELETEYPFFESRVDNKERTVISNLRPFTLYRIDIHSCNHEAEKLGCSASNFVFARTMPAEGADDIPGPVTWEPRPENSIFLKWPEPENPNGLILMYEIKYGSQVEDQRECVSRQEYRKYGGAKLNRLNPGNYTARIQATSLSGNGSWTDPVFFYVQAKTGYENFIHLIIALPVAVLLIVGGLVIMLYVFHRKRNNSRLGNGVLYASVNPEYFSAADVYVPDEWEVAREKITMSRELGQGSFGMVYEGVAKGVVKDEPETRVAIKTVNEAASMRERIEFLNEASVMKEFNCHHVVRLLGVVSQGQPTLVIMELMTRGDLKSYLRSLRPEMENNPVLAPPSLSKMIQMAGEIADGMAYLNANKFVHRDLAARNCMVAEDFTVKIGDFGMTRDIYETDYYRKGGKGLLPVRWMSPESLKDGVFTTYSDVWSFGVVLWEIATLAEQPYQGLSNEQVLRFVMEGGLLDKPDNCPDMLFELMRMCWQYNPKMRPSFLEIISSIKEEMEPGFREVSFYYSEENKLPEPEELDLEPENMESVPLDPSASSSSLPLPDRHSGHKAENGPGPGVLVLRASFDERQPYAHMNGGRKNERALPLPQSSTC

[6] = molecular target: T3, Testis-specific serine/threonine-protein kinase 1 (Homo sapiens) (UniProt Q9BXA7); assay: Inhibition of full length human N-terminal GST-tagged TSSK1 (1 to 367 residues) expressed in baculovirus expression system using fluorescence labelled GS peptide substrate at 50 times IC50 by electrophoretic mobility shift assay relative to control
T3 sequence (whole entry): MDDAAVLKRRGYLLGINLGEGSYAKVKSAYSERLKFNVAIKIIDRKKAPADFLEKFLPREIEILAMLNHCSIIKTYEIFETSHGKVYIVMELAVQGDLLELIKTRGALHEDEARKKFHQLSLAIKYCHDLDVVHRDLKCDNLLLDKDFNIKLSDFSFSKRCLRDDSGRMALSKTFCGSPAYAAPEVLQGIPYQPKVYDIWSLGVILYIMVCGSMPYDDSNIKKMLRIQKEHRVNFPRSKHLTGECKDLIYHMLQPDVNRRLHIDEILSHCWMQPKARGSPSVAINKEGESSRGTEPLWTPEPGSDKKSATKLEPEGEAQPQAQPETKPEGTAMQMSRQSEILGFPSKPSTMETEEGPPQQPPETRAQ

[7] = molecular target: cAMP-dependent protein kinase catalytic subunit alpha (Homo sapiens) (UniProt P17612); assay: Inhibition of full length human N-terminal GST-tagged PKACalpha (1 to 351 residues) expressed in baculovirus expression system using fluorescence labelled kemptide as substrate at 50 times IC50 by electrophoretic mobility shift assay relative to control
[8] = molecular target: Proto-oncogene tyrosine-protein kinase Src (Homo sapiens) (UniProt P12931); assay: Inhibition of full length human N-terminal GST-tagged SRC (1 to 536 residues) expressed in baculovirus expression system using fluorescence labelled srctide as substrate at 50 times IC50 by electrophoretic mobility shift assay relative to control
Proto-oncogene tyrosine-protein kinase Src (Homo sapiens), sequence (P12931 2-536 limits assumed): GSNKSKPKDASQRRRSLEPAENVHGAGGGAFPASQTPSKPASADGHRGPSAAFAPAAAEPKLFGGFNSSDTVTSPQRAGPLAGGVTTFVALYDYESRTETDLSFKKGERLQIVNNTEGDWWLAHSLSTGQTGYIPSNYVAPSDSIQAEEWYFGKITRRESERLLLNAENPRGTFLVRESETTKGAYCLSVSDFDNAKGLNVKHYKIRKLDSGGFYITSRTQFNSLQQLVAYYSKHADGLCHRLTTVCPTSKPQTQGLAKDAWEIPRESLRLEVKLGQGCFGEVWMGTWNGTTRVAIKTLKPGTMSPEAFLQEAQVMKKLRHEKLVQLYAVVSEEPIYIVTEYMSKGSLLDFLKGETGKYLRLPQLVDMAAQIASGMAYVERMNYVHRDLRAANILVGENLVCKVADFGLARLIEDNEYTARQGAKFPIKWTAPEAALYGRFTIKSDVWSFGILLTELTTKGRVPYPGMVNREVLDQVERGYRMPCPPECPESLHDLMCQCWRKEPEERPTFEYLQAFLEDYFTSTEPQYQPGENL

Row | Structure (SMILES) | inhibition [1] | inhibition [2] | inhibition [3] | inhibition [4] | inhibition [5] | inhibition [6] | inhibition [7] | inhibition [8]
1 | O=C(Nc1ccccc1)c1n[nH]c2ccccc12 | 1.3% | 10.6% | 96.7% | 95% | 18.2% | 12.9% | 3.1% | 6.1%
2 | O=C(Nc1ccc(CN2CCN(c3ccccc3)CC2)cc1)c1n[nH]c2ccccc12 | 4.5% | 3.6% | 100% | 80.5% | 0.5% | 1% | -1.4% | 0.6%
3 | O=C(Nc1ccc(C(=O)N2CCN(c3ccccc3)CC2)cc1)c1n[nH]c2ccccc12 | 5.7% | 9.3% | 99.7% | 90.1% | 1.9% | 4.3% | 2.7% | 2.5%
